Reference: US20090011400A1, “Substrate switched ammonia lyases and mutases” (The Salk Institute for Biological Studies and The Regents …, priority 2006, published 2009)
Changes are numbered by the printed parent chain.

How the values were obtained:
SmPAL = conditions: substrate L-Phe, read-out: AIP Ki; cited from earlier work
[1] = target: T1, Rhodobacter sphaeroides tyrosine ammonia lyase (RsTAL) variant H89F (His89Phe) (Cereibacter sphaeroides, UniProt Q3IWB0, H89F); assay: Inhibition of PAL activity of H89F RsTAL by AIP; type: biochemical; parameters: mutant proteins were expressed and purified as described for wild type RsTAL; octahistidine (His8), thrombin-cleavable (N, cleaved yes); made in house; host or cells: E. coli BL21(DE3)
T1 sequence (Q3IWB0 1-523 H89F): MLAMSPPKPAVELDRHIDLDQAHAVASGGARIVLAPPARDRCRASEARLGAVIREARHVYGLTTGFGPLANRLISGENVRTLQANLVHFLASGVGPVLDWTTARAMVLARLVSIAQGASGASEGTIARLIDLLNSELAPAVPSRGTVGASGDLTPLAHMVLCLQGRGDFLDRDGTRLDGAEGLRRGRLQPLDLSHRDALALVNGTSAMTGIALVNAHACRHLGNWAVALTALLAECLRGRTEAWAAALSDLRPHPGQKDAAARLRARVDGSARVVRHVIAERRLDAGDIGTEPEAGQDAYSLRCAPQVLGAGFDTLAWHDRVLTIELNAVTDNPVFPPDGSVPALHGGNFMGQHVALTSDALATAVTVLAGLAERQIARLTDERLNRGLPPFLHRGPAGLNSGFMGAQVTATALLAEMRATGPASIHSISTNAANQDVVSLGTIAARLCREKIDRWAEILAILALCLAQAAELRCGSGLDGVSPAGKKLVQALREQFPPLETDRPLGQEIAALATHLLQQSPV
Method: (§1) The inhibition of enzyme activity by AIP was measured with a similar assay system, except that the enzyme was pre-incubated for 7 min in the presence of fixed concentrations of AIP. Inhibition of PAL activity of wild type RsTAL was measured with 15 μg protein, six AIP concentrations between 0 and 20 μM, and initial L-Phe concentrations between 9.6 and 25.6 mM. Inhibition of PAL activity of the H89F mutant was measured with 10 μg protein, five AIP concentrations between 0 and 5 μM, with initial L-Phe concentrations between 0.4 and 1.6 mM. Duplicate sets of enzyme assays were performed and a Dixon plot was used for the estimation of the AIP inhibition constant, Ki. AIP was a gift from Dr. Jerzy Zon, Wroclaw University, Poland.

PcPAL = PcPAL (Petroselinum crispum, UniProt P24481); conditions: substrate L-Phe, read-out: AIP Ki; cited from earlier work
RsTAL = target: T2, RsTAL (Cereibacter sphaeroides, UniProt Q3IWB0); assay: Crystal soaking experiments of RsTAL with ligands; type: binding, Rhodobacter sphaeroides; conditions: wild type RsTAL crystals soaked with ligand
T2 construct: His8 (octahistidine), thrombin-cleavable (N, cleaved yes); made in house; host or cells: E. coli BL21(DE3)
T2 sequence (Q3IWB0 1-523): T1 sequence (Q3IWB0 1-523 H89F) with F89H
Method: Monoclinic crystals of RsTAL (space group […]) were grown from a 1:1 mixture of protein solution (20 mg/ml in 12.5 mM Tris-HCl, pH 7.5, 50 mM NaCl) and a reservoir solution (0.1 M MOPSO—Na^+, pH 7.0, 7% (w/v) polyethylene glycol 8000, 0.3 M ammonium acetate, 2 mM dithiothreitol, 35 mM cyclohexylbutanoyl-N-hydroxyethylglucamide) using vapor diffusion against reservoir solutions at 4° C. Crystal growth typically occurred over a period of one to three weeks and was expedited through microseeding. […] Crystals of RsTAL in complex with small molecule ligands were produced by soaking crystals for 24-48 hrs in reservoir solutions supplemented with 10-20 mM coumaric acid, caffeic acid, cinnamic acid or AIP.

H89F RsTAL = target: T3, H89F RsTAL (Cereibacter sphaeroides, UniProt Q3IWB0, H89F); assay: Inhibition of PAL activity by AIP, H89F RsTAL; type: biochemical, Rhodobacter sphaeroides
T3 construct: mutant proteins were expressed and purified as described for wild type RsTAL; His8 (octahistidine), thrombin-cleavable (N, cleaved yes); made in house; host or cells: E. coli BL21(DE3)
T3 sequence (Q3IWB0 1-523 H89F): T1 sequence (Q3IWB0 1-523 H89F)
Method: as §1

wild type RsTAL = target: T4, wild type RsTAL (Cereibacter sphaeroides, UniProt Q3IWB0); assay: Inhibition of enzyme activity by AIP, wild type RsTAL; type: biochemical, Rhodobacter sphaeroides
T4 construct: only residues 1 to 7 and the C-terminal residue 523 of each of the eight RsTAL monomers are poorly ordered; His8 (octahistidine), thrombin-cleavable (N, cleaved yes); made in house; host or cells: E. coli BL21(DE3)
T4 sequence (Q3IWB0 1-523): T1 sequence (Q3IWB0 1-523 H89F) with F89H
Method: as §1

For `NC1(P(=O)(O)O)Cc2ccccc2C1` [AIP, 2-aminoindan-2-phosphonate], the Ki (SmPAL) is listed as 1810 nM, the Ki [1] is listed as 600 nM and the Ki (PcPAL) is listed as 25 nM. For the same compound, the “binding observed in RsTAL crystals (in words)” value (RsTAL) was “no significant binding”, the Ki (H89F RsTAL; H89F RsTAL, substrate L-Phe, Dixon plot) was 600 nM and the “Ki lower than for wild type RsTAL” value (H89F RsTAL; H89F mutant with L-Phe versus wild type RsTAL) was 27 fold. For the same compound, the “inhibition of RsTAL activity by AIP (in words)” value (wild type RsTAL; wild type RsTAL) was “weak inhibition”, the “effect of AIP on activity with L-Tyr (in words)” value (wild type RsTAL; wild type RsTAL, substrate L-Tyr) was “unaffected” and the Ki (wild type RsTAL; wt RsTAL, substrate L-Phe, Dixon plot) was 16300 nM.
